The test system of one assay is S. capitis AR18. Nature of the assay: Broth MIC assay. Format: cell-based. The conditions noted are these: Staphylococcus capitis. Here is the method: (§1) MIC determinations were carried out in triplicate in 96-well microtiter plates (Sarstedt, Newton, NC, USA) as previously described. Initially, 200µL of 1% bovine serum albumin (BSA) (Sigma-Aldrich, St. Louis, MO, USA) (in PBS) was added to the plates which were incubated at 37 °C for 30 min. The solution was removed, plates were washed with 200 µL PBS and then air dried in a laminar flow hood. Target strains (Streptococcus agalactiae, Staphylococcus capitis and Lactococcus lactis) were grown overnight in suitable media under appropriate conditions and were subsequently sub-cultured into fresh broth and allowed to grow to an optical density of ~0.5 (OD600). The culture was then diluted to a final concentration of 10^5 CFU mL^−1 in a volume of 1 mL. The peptides were resuspended in appropriate media to a stock concentration of […] (S. agalactiae and S. capitis strains) and […] (L. lactis strains). Nisin A and nisin derivatives were adjusted to a starting concentration of 15 µM (S. agalactiae and S. capitis strains) or 5 µM (L. lactis strains). […] An aliquot of 100 µL of peptides and or antibiotics were added to the first well, mixed and then 2-fold serial dilutions of each peptide were made in TSBYE broth. Then, 100 µL of target strain was added to each test well, and the plates were incubated at 30 °C or 37 °C for 16 h. The MIC was read as the lowest peptide concentration causing inhibition of visible growth. Experiments were performed in triplicate.

The test system of a further assay is S. capitis AV80. Kind of assay: Broth MIC assay. Format: cell-based. The conditions noted are these: Staphylococcus capitis. On the procedure: as §1
A further assay has as its system S. capitis AY41. Kind of assay: microbe, parasite or virus in culture. It counts as cell-based, Staphylococcus capitis. Here is the method: as §1
Another assay deals with S. capitis strains. Kind of assay: Broth MIC assay, summary over isolates. The conditions noted are these: Staphylococcus capitis; span over the isolates the sentence refers to (four or all five). Format: cell-based, Staphylococcus capitis. Here is the method:
as §1, with “Then, 100 µL of target strain was added to each test well, and the plates were incubated at 30 °C or 37 °C for 16 h.” left out, “Experiments were performed in triplicate.” left out

Another assay concerns S. agalactiae CIT 239. Kind of assay: Broth MIC assay. It counts as cell-based, Streptococcus agalactiae. Here is the method: as §1
For the next assay, the system named is S. agalactiae CIT 67. Kind of assay: Broth MIC assay. Format: cell-based, Streptococcus agalactiae. The conditions noted are these: for MIC: broth microdilution in TSBYE, 10^5 CFU/mL, 16 h, 37 °C, average of three independent biological repeats. Here is the method: as §1
The test system of the next assay is S. agalactiae CIT 364. Kind of assay: Broth MIC assay. It counts as cell-based, Streptococcus agalactiae. The conditions noted are these: broth microdilution in TSBYE, 10^5 CFU/mL, 16 h, 37 °C, average of three independent biological repeats. On the procedure:
as §1

The subject of another assay is S. agalactiae CIT 85. Kind of assay: Broth MIC assay. It counts as cell-based, Streptococcus agalactiae. On the procedure:
as §1

In a further assay the test system is S. agalactiae CIT 87. Kind of assay: Broth MIC assay. It counts as cell-based, Streptococcus agalactiae. The conditions noted are these: broth microdilution in TSBYE, 10^5 CFU/mL, 16 h, 37 °C, average of three independent biological repeats. Here is the method: as §1
A further assay concerns S. capitis BA06. Kind of assay: Broth MIC assay. It counts as cell-based, Staphylococcus capitis. The conditions noted are these: Staphylococcus capitis. Here is the method: as §1
The next assay deals with S. capitis BD01. Nature of the assay: Broth MIC assay. It counts as cell-based, Staphylococcus capitis. On the procedure:
as §1

For assay [1], the system named is clinical isolates of S. agalactiae (n = 5) and S. capitis (n = 5). Kind of assay: Deferred antagonism agar-based assay. Format: cell-based, Streptococcus agalactiae, Staphylococcus capitis. The conditions noted are these: pathogenic indicators, n = 10. On the procedure: All plates were supplemented with sub-inhibitory concentration (10 µg/L) of nisin in the form of nisaplin to ensure induction of the nisin mutants.
Site-saturation mutagenesis of three codons, including threonine, lysine and methionine, at positions 2, 12 and 17 of the nisA gene, was carried out as described previously. Briefly, pDF23 (pCI372-PV) was used as a template and oligonucleotides, NisT2deg-FOR and REV, NisK12deg-FOR and REV and Nis17deg-FOR and REV, containing an NNK codon potentially encoding for all twenty standard amino acids. Deferred antagonism agar-based assays were employed to assess the bioactivity of the nisin derivatives (PV, K12X-PV, T2X-PV, and M17X-PV) produced by each strain. Briefly, fresh overnight cultures of each L. lactis test culture was replicated on GM17/TSBYE agar plates containing 0.1% nisaplin using a 96-pin replicator (Boekel, Feasterville, PA, USA) and incubated overnight at 30 °C before being exposed to ultraviolet radiation for 45 min. The plates were then overlayed with GM17/TYSBYE agar (0.75% agar) and seeded (0.5% inoculum) with either Lactococcus lactis MG1614 (NSR-), the nisin resistance protein-expressing indicator strain L. lactis MG1614 pNP40 (NSR+) or TSBYE agar seeded with Staphylococcus capitis (NSR+) or Streptococcus agalactiae (NSR+) isolates. […]

Another assay deals with S. agalactiae strains. Kind of assay: Broth MIC assay, summary over isolates. Format: cell-based, Streptococcus agalactiae. The settings on record: Streptococcus agalactiae, read-out: MIC values over S. agalactiae strains, span over the isolates the sentence refers to (three, four or all five). Here is the method:
as §1

Setting [2] is: AR18, broth microdilution in TSBYE, 10^5 CFU/mL, 16 h, 37 °C, average of three independent biological repeats, read-out: MIC.
The mark [3] stands for this setting: AV80, broth microdilution in TSBYE, 10^5 CFU/mL, 16 h, 37 °C, average of three independent biological repeats, read-out: MIC.
[4] abbreviates: Staphylococcus capitis, AY41, broth microdilution in TSBYE, 10^5 CFU/mL, 16 h, 37 °C, average of three independent biological repeats, read-out: MIC.
The mark [5] stands for this setting: Streptococcus agalactiae, CIT239, broth microdilution in TSBYE, 10^5 CFU/mL, 16 h, 37 °C, average of three independent biological repeats, read-out: MIC.
Setting [6] is: Streptococcus agalactiae, CIT67, read-out: MIC.
Setting [7] is: Streptococcus agalactiae, CIT364, read-out: MIC.
[8] abbreviates: Streptococcus agalactiae, CIT85, broth microdilution in TSBYE, 10^5 CFU/mL, 16 h, 37 °C, average of three independent biological repeats, read-out: MIC.
Setting [9] is: Streptococcus agalactiae, CIT87, read-out: MIC.
Setting [10] is: BA06, broth microdilution in TSBYE, 10^5 CFU/mL, 16 h, 37 °C, average of three independent biological repeats, read-out: MIC.
[11] abbreviates: Staphylococcus capitis, BD01, broth microdilution in TSBYE, 10^5 CFU/mL, 16 h, 37 °C, average of three independent biological repeats, read-out: MIC.
The mark [12] stands for this setting: broth microdilution in TSBYE, 10^5 CFU/mL, 16 h, 37 °C, average of three independent biological repeats.

Values after ≈ are worked out from the molar mass of the structure shown. Like-named read-outs stand apart in the source and are kept apart here. Marks after values point to notes of the source that are not given here. A value given as a limit tells only on which side of the number the result lay.

As for `CNC(C)C1CCC(N)C(OC2C(N)CC(N)C(OC3OCC(C)(O)C(NC)C3O)C2O)O1` (stereo not shown) [Gentamicin, gentamicin], the MIC in the assay on S. capitis AR18 (setting [2]) is greater than 50 µg/mL; in the assay with S. capitis AV80 (setting [3]) it was greater than 50 µg/mL; in the assay with S. capitis AY41 (setting [4]) it was 0.39 µg/mL (≈ 0.817 µM); in the assay on S. capitis strains, greater than 50 µg/mL; with S. agalactiae CIT 239 (setting [5]), 25 µg/mL (≈ 52.3 µM); in the assay on S. agalactiae CIT 67 (setting [6]), 25 µg/mL (≈ 52.3 µM). The MIC was 25 µg/mL (≈ 52.3 µM) in the assay with S. agalactiae CIT 364 (setting [7]); 6.25 µg/mL (≈ 13.1 µM) in the assay with S. agalactiae CIT 85 (setting [8]); 25 µg/mL (≈ 52.3 µM) in the assay with S. agalactiae CIT 87 (setting [9]); greater than 50 µg/mL in the assay on S. capitis BA06 (setting [10]); greater than 50 µg/mL in the assay on S. capitis BD01 (setting [11]).
As for `CN[C@H](CC(C)C)C(=O)N[C@H]1C(=O)N[C@@H](CC(N)=O)C(=O)N[C@H]2C(=O)N[C@H]3C(=O)N[C@H](C(=O)N[C@H](C(=O)O)c4cc(O)cc(O)c4-c4cc3ccc4O)[C@H](O)c3ccc(c(Cl)c3)Oc3cc2cc(c3O[C@@H]2O[C@H](CO)[C@@H](O)[C@H](O)[C@H]2O[C@H]2C[C@](C)(N)[C@H](O)[C@H](C)O2)Oc2ccc(cc2Cl)[C@H]1O` [Vancomycin, vancomycin], the MIC in the assay with S. capitis AR18 (AR18, 16 h) turned out to be 1.56 µg/mL (≈ 1.08 µM); in the assay on S. capitis AV80 (AV80, 16 h), 3.13 µg/mL (≈ 2.16 µM); against S. capitis AY41 (Staphylococcus capitis, AY41, 16 h) it was 1.56 µg/mL (≈ 1.08 µM); against S. capitis BA06 (BA06, 16 h), 1.56 µg/mL (≈ 1.08 µM); in the assay with S. capitis BD01 (Staphylococcus capitis, BD01, 16 h), 3.13 µg/mL (≈ 2.16 µM).
As for penicillin, the MIC in the assay with S. capitis AY41 (setting [12]) is recorded as 0.39 µg/mL; against S. agalactiae CIT 239 (setting [12]) it was 0.02 µg/mL; in the assay on S. agalactiae CIT 67, 0.04 µg/mL; in the assay on S. agalactiae CIT 364 it was 0.02 µg/mL; against S. agalactiae CIT 85 (setting [12]), 0.012 µg/mL; against S. agalactiae CIT 87, 0.02 µg/mL. In the assay on S. capitis BD01 (setting [12]), this compound registered an MIC of 6.25 µg/mL.
As for `C=C(NC(=O)[C@@H](NC(=O)[C@H](Cc1c[nH]cn1)NC(=O)[C@@H](NC(=O)[C@@H]1CCCN1C(=O)[C@@H]1CS[C@@H](C)[C@H]2NC(=O)[C@H](C)NC(=O)[C@H](NC(=O)[C@H](CCCCN)NC(=O)[C@H](CCSC)NC(=O)[C@H](CC(N)=O)NC(=O)[C@@H]3CS[C@@H](C)[C@@H](NC(=O)[C@H](CCCCN)NC(=O)[C@@H]4CS[C@@H](C)[C@@H](NC(=O)[C@@H]5CSC[C@@H](NC(=O)[C@H](C)NC(=O)[C@@H](N)[C@@H](C)CC)C(=O)N[C@@H]([C@@H](C)CC)C(=O)NC(=C)C(=O)N[C@@H](CC(C)C)C(=O)N5)C(=O)N5CCC[C@H]5C(=O)NCC(=O)N4)C(=O)NCC(=O)N[C@@H](C)C(=O)N[C@@H](CC(C)C)C(=O)N[C@@H](CCSC)C(=O)NCC(=O)N3)[C@H](C)SC[C@H](NC2=O)C(=O)N[C@@H](Cc2c[nH]cn2)C(=O)N1)C(C)C)C(C)C)C(=O)N[C@@H](CCCCN)C(=O)O` [T2A-PV], the MIC against S. capitis AY41 (16 h) is 12.5 * µg/mL. In addition, in the assay with S. capitis AY41 (from MIC), the “fold decrease in potency compared to nisin PV” value is on record as 2 fold and the “fold increase in potency compared to nisin A” value stood at 2 fold. In addition, in the assay with S. agalactiae CIT 67 (from MIC), the “fold decrease in specific activity compared to nisin A” value is 2 fold and the “fold decrease in specific activity compared to nisin PV” value worked out at 4 fold. In assay [1], the “bioactivity (zone of inhibition) of the producing strain” value is “not apparent against the pathogenic isolates”.
As to `CC[C@H]1OC(=O)[C@H](C)[C@@H](O[C@H]2C[C@@](C)(OC)[C@@H](O)[C@H](C)O2)[C@H](C)[C@@H](O[C@@H]2O[C@H](C)C[C@H](N(C)C)[C@H]2O)[C@](C)(O)C[C@@H](C)C(=O)[C@H](C)[C@@H](O)[C@]1(C)O` [Erythromycin, erythromycin], the MIC in the assay with S. capitis AR18 (setting [2]) is 0.097 µg/mL (≈ 0.132 µM); in the assay with S. capitis AV80 (setting [3]), 12.5 µg/mL (≈ 17 µM); with S. capitis AY41 (setting [4]) it was 0.195 µg/mL (≈ 0.266 µM); in the assay on S. agalactiae CIT 239 (Streptococcus agalactiae, CIT239, 16 h) it was 1.56 µg/mL (≈ 2.13 µM); with S. agalactiae CIT 67 (setting [6]), 1 µg/mL (≈ 1.36 µM); with S. agalactiae CIT 364 (setting [7]) it was 0.78 µg/mL (≈ 1.06 µM). Also, the MIC with S. agalactiae CIT 85 (Streptococcus agalactiae, CIT85, 16 h) was 3.13 µg/mL (≈ 4.26 µM); in the assay with S. agalactiae CIT 87 (setting [9]) it was 0.39 µg/mL (≈ 0.531 µM); in the assay with S. agalactiae strains it was 0.78 to 3.13 µg/mL (≈ 1.06 to 4.26 µM); in the assay with S. capitis BA06 (setting [10]), 12.5 µg/mL (≈ 17 µM); with S. capitis BD01 (setting [11]), 6.25 µg/mL (≈ 8.52 µM).
With `CC1(C)S[C@@H]2[C@H](NC(=O)[C@H](N)c3ccccc3)C(=O)N2[C@H]1C(=O)O` [Ampicillin, ampicillin], the MIC is 0.097 µg/mL (≈ 0.278 µM) with S. agalactiae CIT 239 (setting [5]); 1.56 µg/mL (≈ 4.46 µM) in the assay on S. agalactiae CIT 67 (setting [6]); 0.78 µg/mL (≈ 2.23 µM) with S. agalactiae CIT 364 (setting [7]); 0.097 µg/mL (≈ 0.278 µM) with S. agalactiae CIT 85 (setting [8]); 0.78 µg/mL (≈ 2.23 µM) in the assay with S. agalactiae CIT 87 (setting [9]); 0.78 to 1.56 µg/mL (≈ 2.23 to 4.46 µM) in the assay with S. agalactiae strains.

The values are drawn from paper PMC9686653, “Bioengineered Nisin A Derivatives Display Enhanced Activity against Clinical Neonatal Pathogens” (Antibiotics, 2022).
